This note sets out measurements from ChEMBL document CHEMBL4041528, “Natural NO inhibitors from the leaves of Callicarpa kwangtungensis: Structures, activities, and interactions with iNOS” (Bioorg Med Chem Lett, 2017).

Each structure is given as a SMILES string. Bounds are passed on as bounds.

The test system of one data set is BV-2. Briefly: Inhibition of LPS-induced NO production in mouse BV2 cells after 20 hrs by Griess assay. In kind it is functional, cell-based. The following applies: BV-2, 20 h.
Consider `CO[C@@H]1C[C@H]2[C@](C)(C(=O)O)CCC[C@]2(C)[C@]23CC[C@](C(C)C)(C=C12)OO3`, for which half-maximal inhibition (IC50) was put at 23.7 µM.
On the same count and under the same terms, the figure for `CC(C)[C@]12CC[C@]3(OO1)C(=CC[C@H]1[C@](C)(C(=O)O)CCC[C@@]13C)[C@@H]2O` is 26.7 µM; for `CC(C)[C@]12CC[C@@]34O[C@@]3(CC[C@H]3[C@](C)(C(=O)O)CCC[C@@]34C)[C@H]1O2` it is over 81 µM.
The same measure, in the same setting: the figure for `CC(C)[C@@]12C=C3CC[C@H]4[C@](C)(C(=O)O)CCC[C@]4(C)[C@]3(CC1)OO2` is 52.4 µM; for `CC(C)[C@]12C=C3CC[C@H]4[C@](C)(C(=O)O)CCC[C@]4(C)[C@@]3(CC1)OO2` it is 34.7 µM.
The same measure, in the same setting: for `CC(C)c1ccc2c(c1)[C@@H](O)C[C@H]1[C@](C)(C(=O)O)CCC[C@]21C` the value was 17.9 µM.
Compound `CC1(C)C[C@H](O)[C@]23CC[C@@H](O)[C@](C)(CC[C@@H]12)C3` came in with an IC50 of 62.2 µM.
With `C=C(C)c1ccc2c(c1)CC[C@H]1[C@](C)(CO)CCC[C@]21C`, the concentration for half-maximal inhibition (IC50) was 15.3 µM.
Compound `C=C1CC[C@H](O)/C(C)=C\C[C@@H]2[C@@H]1CC2(C)C` had a half-maximal inhibitory concentration (IC50) of 13.6 µM.
Same read-out and setting: the figure for `C=C1CC[C@H](O)[C@@]2(C)O[C@H]2C[C@@H]2[C@@H]1CC2(C)C` is 42.6 µM.
Turning to `C=C(C)c1ccc2c(c1)CC[C@H]1[C@](C)(C(=O)O)CCC[C@]1(C)O2`, the half-maximal inhibitory concentration (IC50) amounted to 25.5 µM.
As for `CC1(C)C[C@@H]2C(=O)CC[C@H]3O[C@]3(C)CC[C@H]21` [KOBUSONE], the IC50 is over 81 µM.
In turn, `CC(C)[C@@]12C=C3[C@H](O)C[C@H]4[C@](C)(C(=O)O)CCC[C@]4(C)[C@]3(CC1)OO2` had an IC50 of over 81 µM.

The test system of the next data set is BV-2. The experiment in a line: Cytotoxicity against mouse BV2 cells NO inhibitory IC50 by MTT assay. Type of data set: cell-based.
Conditions: not given
With `CO[C@@H]1C[C@H]2[C@](C)(C(=O)O)CCC[C@]2(C)[C@]23CC[C@](C(C)C)(C=C12)OO3`, the Activity result is listed as “Non-Toxic”.
As to `CC(C)[C@]12CC[C@]3(OO1)C(=CC[C@H]1[C@](C)(C(=O)O)CCC[C@@]13C)[C@@H]2O`, the Activity result is on record as “Non-Toxic”.
For `CC(C)[C@]12CC[C@@]34O[C@@]3(CC[C@H]3[C@](C)(C(=O)O)CCC[C@@]34C)[C@H]1O2`, the Activity entry is on record as “Non-Toxic”.
Still for that read-out and setting: the entry for `CC(C)[C@@]12C=C3CC[C@H]4[C@](C)(C(=O)O)CCC[C@]4(C)[C@]3(CC1)OO2` is “Non-Toxic”; for `CC(C)[C@]12C=C3CC[C@H]4[C@](C)(C(=O)O)CCC[C@]4(C)[C@@]3(CC1)OO2` it is “Non-Toxic”.
On to `CC(C)c1ccc2c(c1)[C@@H](O)C[C@H]1[C@](C)(C(=O)O)CCC[C@]21C`, for which the Activity entry is recorded as “Non-Toxic”.
The same measure, in the same setting: for `CC1(C)C[C@H](O)[C@]23CC[C@@H](O)[C@](C)(CC[C@@H]12)C3` the value was “Non-Toxic”; for `C=C(C)c1ccc2c(c1)CC[C@H]1[C@](C)(CO)CCC[C@]21C`, “Non-Toxic”; for `C=C1CC[C@H](O)/C(C)=C\C[C@@H]2[C@@H]1CC2(C)C`, “Non-Toxic”.
On the same count and under the same terms, for `C=C1CC[C@H](O)[C@@]2(C)O[C@H]2C[C@@H]2[C@@H]1CC2(C)C` the value was “Non-Toxic”; for `C=C(C)c1ccc2c(c1)CC[C@H]1[C@](C)(C(=O)O)CCC[C@]1(C)O2`, “Non-Toxic”.
Same read-out and setting: the entry for `CC1(C)C[C@@H]2C(=O)CC[C@H]3O[C@]3(C)CC[C@H]21` [KOBUSONE] is “Non-Toxic”; for `CC(C)[C@@]12C=C3[C@H](O)C[C@H]4[C@](C)(C(=O)O)CCC[C@]4(C)[C@]3(CC1)OO2` it is “Non-Toxic”.

What is called IC50 is the midpoint of a concentration-inhibition curve.
